Reference: US20100197788A9, “Preventive or therapeutic agent for disease caused by decrease in lacrimal fluid” (priority 2005, published 2010)
Counter-ions that a name gives are not always drawn.

How the values were obtained:
[1] = tested on: male Japanese white rabbits; assay: Measurement of tear secretion in rabbits given a β3 AR stimulant (Example 1), with or without ICI-118551 pre-treatment; type: in vivo, rabbit
Experimental: Four fasting male Japanese white rabbits (about 3 kg) were allocated to each group. Compound 1 (hydrochloride, 3 or 30 mg/kg), a β3 AR stimulant, or the vehicle (0.5% gum Arabic) was administered to the duodenum through a needle placed in the duodenum of a rabbit, which was anesthetized with urethane (25%, 5 mL/kg, subcutaneously). The quantity of tear secretion was measured for 5 min before drug administration and for 5 min at 20 min after drug administration in the following manner. One piece each of pre-weighed filter paper (Wattman No. 41, 0.22 mm thick, 2.5×1.5 mm) was inserted to each of the upper and lower eyelids of either right or left eye. The difference in weight of the filter papers before and after insertion (post-insertion weight−pre-insertion weight) was defined as the quantity of tear secretion. Fifty (50) μL of a local anesthetic agent, 0.4% oxybuprocaine hydrochloride (Santen Co.), was instilled into eyes 5 min before each measurement. Tear and the instilled local anesthetic were wiped immediately before the filter paper was inserted. Filter papers recovered after each measurement were placed into tubes. A phosphate buffer (pH 7.4) (500 μL) was added to each of the tubes, and they were agitated for 30 sec. After the filter papers were removed and the mixture was centrifuged at 1,880×g for 5 min, protein concentrations in supernatant were measured using Micro BCA Protein Assay Reagent Kit (Pierce Co.). The quantity of protein in tear was calculated based on the protein concentration and the quantity of tear secretion at each time. The difference in the quantity of tear secretion before administration of a test drug and that at each measurement after administration was defined as a change in the quantity of tear secretion or protein in tear. Each milligram of the change in the quantity of tear was taken as 1 μL in tabulation. As a result, administration of Compound 1 (hydrochloride, 3 or 30 mg/kg) into the duodenum facilitated the tear secretion and protein secretion in tear.
In addition, in order to study the role played by a β2 AR stimulating activity in the above-described actions of Compound 1, 30 μg/kg of ICI-118551 (Sigma Co.), a selective β2 AR inhibitor, was administered intravenously 5 min before administration of Compound 1 (30 mg/kg) and the same test was performed. The facilitating activities of tear secretion and protein secretion in tear by Compound 1 were not affected by pre-treatment with the selective β2 AR inhibitor, ICI-118551 (30 μg/kg, i.v.) (FIG. 5). The results confirmed that the Compound 1's activities facilitating tear secretion and protein secretion in tear were exerted by way of β3 AR.

[2] = tested on: male Japanese white rabbits; assay: Measurement of tear in rabbits given a β3 AR stimulant having a β2 AR stimulating activity (Example 2); type: in vivo, rabbit; conditions: for total quantity of protein secretion in tear / total quantity of tear secretion: 60 min, compared to Control group
Experimental: Four fasting male Japanese white rabbits (about 3 kg) were allocated to each group. Compound 2 (0.3, 1 or 10 mg/kg), which is a β3 AR stimulant having a β2 AR stimulating activity, terbutaline sulfate (10 mg/kg), which is a β2 AR stimulant, or their vehicle (distilled water) was administered to the duodenum through a needle placed in the duodenum of a rabbit which was anesthetized with urethane (25%, 5 mL/kg, subcutaneously). In the same manner as in Example 1, quantities of tear secretion and protein in tear were measured for each 5 min before drug administration and at 5, 20, 30, 40 and 50 min after drug administration. The total quantities of tear secretion and protein in tear were defined as the sum total of the quantities of secretion at each measurement time during 60 min after administration of the test drug. Each […] of the change in the quantity of tear was considered as 1 μL in tabulation.

[3] = tested on: male SD strain rats; assay: Measurement of tear in rats given a β3 AR stimulant having a β2 AR stimulating activity (Example 3); type: in vivo, rat; conditions: for total quantity of protein secretion in tear / total quantity of tear secretion: 60 min, compared to Control group
Experimental: Nine (9) to 10 fasting male SD strain rats (7 weeks old) were allocated to each group. Rats were fixed in prone position under urethane anesthesia (25%, 5 mL/kg, subcutaneously). Compound 2 (0.3, 1 or 10 mg/kg), which is a β3 AR stimulant having a β2 AR stimulating activity, terbutaline sulfate (10 mg/kg), which is a β2 AR stimulant, or their vehicle (distilled water) were administered to the duodenum through a needle placed in the duodenum. One end of a capillary (Drummond Microdispenser Co. 10 μL) was placed at the inner canthus of rat right eye after tear was wiped. The quantity of tear secretion was measured by the length of the capillary filled with tear in 60 minutes after drug administration. The total quantity of tear secretion (μL) was calculated using the inner diameter of the capillary and the length of the capillary filled with tear. After the quantity of tear secretion was measured, the tear in the capillary was recovered in a tube to measure the protein concentration using Micro BCA Protein Assay Reagent Kit (Pierce Co.). The total quantity of protein in tear was calculated using the obtained protein concentration and the total quantity of tear secretion.

[4] = tested on: rabbit conjunctiva; assay: Mucin secretion from the rabbit conjunctiva following ocular instillation, impression cytology method (Example 5); type: in vivo; conditions: 0.1% solution, 50 μL, 30 min after instillation, vs vehicle, rabbits
Experimental: Four male Japanese white rabbits (about 3 kg) were allocated to each group. After rabbits were anesthetized with ketamine-xylazine (3:1), 50 μL of Compound 2 (0.1% solution), terbutaline sulfate (0.1% solution) or their vehicle (a phosphate buffer solution, pH 7.4) were instilled in either side of eyes. Mucin secretion from the conjunctiva was measured 30 min after instillation by impression cytology method. That is, after ocular instillation of 50 μL of a local anesthetic (0.4% oxybuprocaine hydrochloride by Santen Co.), residual tear was wiped 5 min after instillation and 3×3 mm cellulose acetate filter paper was pressed on the conjunctiva for 30 sec. Then, PAS staining was performed with the recovered filter papers in the same manner as in Example 2. After filter papers were cleared and embedded, the number of PAS positive goblet cells existing in a certain visual field of a microscope was counted. Decreases in the count of PAS positive goblet cells indicate that mucin secretion from the conjunctiva is facilitated. […] However, terbutaline sulfate had no effect (FIG. 9).

[5] = tested on: male Japanese white rabbits; assay: Measurement of tear in rabbits following ocular instillation (Example 4); type: in vivo, rabbit; conditions: 0.1% solution, 50 μL
Experimental: Four fasting male Japanese white rabbits (about 3 kg) were allocated to each group. After rabbits were anesthetized with urethane (25%, 5 mL/kg, subcutaneously), 50 μL of Compound 2 (0.1% solution) or the vehicle (a phosphate buffer solution, pH 7.4) was instilled in either right or left eye. The quantity of tear secretion was measured and calculated for each 5 min before and at 5 and 20 min after instillation in the same manner as in Example 1. The difference in the quantity of tear secretion before administration of a test drug and that at each measurement time after ocular instillation was defined as a change in the quantity of tear secretion. Each milligram of the change in the quantity of tear secretion was considered as 1 μL in tabulation.

[6] = Compound 1 30 mg/kg, ICI-118551 30 μg/kg i.v. 5 min before
[7] = hydrochloride, 3 or 30 mg/kg into the duodenum, anesthetized rabbits, 5 min at 20 min after administration vs before
[8] = 0.3, 1 and 10 mg/kg into the duodenum
[9] = doses of 1 mg/kg and above into the duodenum
[10] = 10 mg/kg into the duodenum, compared to Compound 2 (10 mg/kg) group

Compound: CCOC(=O)COc1cc(C)c(CCN[C@@H](C)[C@H](O)c2ccc(O)cc2)cc1C [Compound 1, ethyl 2-[4-[2-[[(1S,2R)-2-hydroxy-2-(4-hydroxy-phenyl)-1-methylethyl]amino]ethyl]-2,5-dimethylphenoxy]-acetate]
- change in the quantity of protein in tear ([1]; 30 mg/kg into the duodenum, compared to Control group (p<0.05, Dunnett)): significantly increased
- facilitating activity of protein secretion in tear after pre-treatment with selective β2 AR inhibitor [1, 6]: not affected
- facilitating activity of tear secretion after pre-treatment with selective β2 AR inhibitor [1, 6]: not affected
- protein secretion in tear [1, 7]: facilitated
- tear secretion [1, 7]: facilitated

Compound: C[C@H](NCCc1ccc(OCC(=O)O)cc1)[C@H](O)c1ccc(O)cc1 [Compound 2]
- protein secretion in tear [2, 8]: facilitated dose-dependently
- tear secretion [2, 8]: facilitated dose-dependently
- total quantity of protein secretion in tear [2, 9]: significantly increased
- total quantity of tear secretion [2, 9]: significantly increased
- protein secretion in tear [3, 8]: facilitated dose-dependently
- tear secretion [3, 8]: facilitated dose-dependently
- total quantity of protein secretion in tear [3, 9]: significantly increased
- total quantity of tear secretion [3, 9]: significantly increased
- mucin secretion from the conjunctiva (count of PAS positive goblet cells) [4]: facilitated mucin secretion from the conjunctiva more than the vehicle did
- tear secretion [5]: facilitated
- quantity of tear secretion measured for 5 min after ocular instillation ([5]; compared to Control group): significantly increased

Compound: CC(C)(C)NCC(O)c1cc(O)cc(O)c1 (stereo not drawn) [terbutaline sulfate, reference compound]
- total quantity of protein secretion in tear ([2]; 10 mg/kg into the duodenum): significantly increased
- total quantity of tear secretion ([2]; 10 mg/kg into the duodenum): significantly increased
- increase in total quantity of protein secretion in tear [2, 10]: significantly lower
- increase in total quantity of tear secretion [2, 10]: significantly lower
- total quantity of protein secretion in tear ([3]; 10 mg/kg into the duodenum): significantly increased
- total quantity of tear secretion ([3]; 10 mg/kg into the duodenum): significantly increased
- total quantity of protein in tear [3, 10]: significantly lower
- mucin secretion from the conjunctiva (count of PAS positive goblet cells) [4]: no effect
